We go through two compounds from patent US20160208339A1, “BIOMARKERS CORRELATED TO PARP INHIBITOR TREATMENT SUCCESS IN AML PATIENTS” (KING'S COLLEGE LONDON, priority 2013, published 2016).

Data set [1] deals with ATRA resistant M4-PML-RARα cells. Briefly: ATRA resistant mouse model, FVB mice injected with M4-PML-RARα cells. The format is in vivo. The settings on record: Olaparib 50 mg/kg intra-peritoneal daily for two weeks. The protocol:
(§1) A) Kaplan-Meier survival curve relative to NSG mice injected with NB4 human cells. NB4 human cells expressing the oncogene PML-RARα were injected intravenously in NSG mice and distributed in two groups. […] Treatment was performed for two weeks. Mice were monitored daily until the development of symptoms of leukaemia, when bone marrow (B), spleen (C) and liver (D) were harvested, processed, stained with PE-conjugated antibody against human CD33 and analysed by FACS, to quantify the human cell engraftment in these organs. E) Kaplan-Meier survival curve relative to NSG mice injected with Kasumi human cells. Kasumi human cells expressing the oncogene AML1-ETO were injected intra-femur in NSG mice and distributed in two groups. […] Treatment was performed for two weeks. Mice were monitored daily until the development of symptoms of leukaemia, when bone marrow (F), spleen (G) and liver (H) were harvested, processed, stained with PE-conjugated antibody against human CD33 and analysed by FACS, to quantify the human cell engraftment in these organs. […] Mice were monitored daily until the development of symptoms of leukaemia, when bone marrow (K), spleen (L) and liver (M) were harvested, processed, stained with PE-conjugated antibody against mouse Gr1 and analysed by FACS, to quantify the human cell engraftment in these organs. […]

The test system of the next data set is NB4. Kind of data set: Colony assay in methylcellulose, human cell line. The format is cell-based. The settings on record: Olaparib 1-5 μM, methylcellulose 7 days. The protocol:
(§2) FIG. 2 AML1-ETO and PML-RARα leukemic cells are sensitive to PARPi. A) Representative scheme of experimental procedures. B) Non linear regression dose response curve. Normal bone marrow c-kit cells and pre-leukaemic cells expressing the oncofusion proteins AML1-ETO, E2A-PBX, MLL-AF9 and PML-RARα were grown in methylcellulose for 7 days with escalating doses of PARPi. Data representative of three independent experiments are shown. C) Percentage of survival of preleukemic cells to PARPi. The number of colonies surviving to seven days incubation with PARPi treatment was normalized against the untreated control. Data representative of six independent experiments are shown ±SD. […] D) Colony morphology (phase contrast microscopy, magnification 40×). Representative pictures are shown. E) Efficiency of PARP1 Knock down (KD) in NIH3T3 cells infected with retroviral vectors expressing shRNA against mouse PARP1. qPCR data showing expression of PARP1 mRNA in NIH3T3 after infection with sh-mPARP1. Data representative of two independent experiments are shown ±SD. Paired two-tailed t test was performed between empty vector and i) scramble, ii) sh-PARP1-A and iii) sh-PARP1-D*p<0.05. F) Efficiency of PARP1 by Western Blot. Western Blot data showing protein level of PARP1 in NIH3T3 after infection with sh-mPARP1. […]

The next data set relates to Kasumi. Briefly: Colony assay in methylcellulose, human cell line. The format is cell-based. As to conditions: Olaparib 1-5 μM, methylcellulose 7 days. The method, then:
as §2

The next data set relates to MLL-AF9 cells. Kind of data set: C57Bl/6 mice injected with leukaemic MLL-AF9 cells. In kind it is in vivo. The settings on record: Olaparib 50 mg/kg intra-peritoneal daily for two weeks. The method, then: as §1
For a further data set, the system named is bone marrow c-kit+ cells. Kind of data set: PARPi titration, colony assay in methylcellulose, normal bone marrow cells. The settings on record: Mus musculus, Bone marrow cell, 168 h; colonies counted after seven days in methylcellulose; nonlinear regression. In kind it is cell-based. The method, then:
FIG. 1 PARPi titration. A) PARPi titration in normal bone marrow c-kit cells grown in methylcellulose for 7 days. Data representative of three independent experiments are shown ±SD. […] B) Non linear regression dose response curve, obtained by logarithmic transformation of the data presented in the panel A. C) Colony morphology (contrast microscopy magnification 40×). Representative pictures are shown.
Bone marrow cells were treated with escalating doses of Olaparib in methylcellulose. After seven days colonies were counted. The number of colonies obtained in the untreated condition was set as the top value (100%). The bottom value (0) was calculated as the lowest concentration resulting in no colonies. The data where then analyzed in a nonlinear regression dose-response curve (FIG. 1).

In data set [2] the test system is NB4 human cells expressing the oncogene PML-RARα. Briefly: Survival of NSG mice injected intravenously with NB4 human cells. The format is in vivo. The protocol: (§3) A) Kaplan-Meier survival curve relative to NSG mice injected with NB4 human cells. NB4 human cells expressing the oncogene PML-RARα were injected intravenously in NSG mice and distributed in two groups. […] Treatment was performed for two weeks. Mice were monitored daily until the development of symptoms of leukaemia, when bone marrow (B), spleen (C) and liver (D) were harvested, processed, stained with PE-conjugated antibody against human CD33 and analysed by FACS, to quantify the human cell engraftment in these organs. E) Kaplan-Meier survival curve relative to NSG mice injected with Kasumi human cells. Kasumi human cells expressing the oncogene AML1-ETO were injected intra-femur in NSG mice and distributed in two groups. […] Treatment was performed for two weeks. Mice were monitored daily until the development of symptoms of leukaemia, when bone marrow (F), spleen (G) and liver (H) were harvested, processed, stained with PE-conjugated antibody against human CD33 and analysed by FACS, to quantify the human cell engraftment in these organs. I) and J Kaplan-Meier survival curves of FVB and C57Bl/6 mice injected with M4-PML-RARα and MLL-AF9 cells, respectively. ATRA resistant M4-PML-RARα cells were injected intravenously in FVB mice and distributed in three groups. […] Mice were monitored daily until the development of symptoms of leukaemia, when bone marrow (K), spleen (L) and liver (M) were harvested, processed, stained with PE-conjugated antibody against mouse Gr1 and analysed by FACS, to quantify the human cell engraftment in these organs. […]
(§4) In order to test the efficacy of this treatment in vivo, we transplanted Kasumi and NB4 cell lines into a small cohort of sublethally irradiated NOD/SCID/IL2Rg−/− (NSG) mice by intra-femoral and intravenous injection, respectively. […] The maximum dose tolerated was calculated by in vivo dose-response experiments. Mice were monitored daily until they developed symptoms of leukaemia, when they were culled and bone marrow, spleen and liver harvested and analyzed by FACS. […]

For data set [3], the system named is untargeted population of ovarian cancer. As to conditions: phase II; cited from earlier work.
For data set [4], the system named is AML1-ETO transformed cells. Kind of data set: Clonogenic assay in methylcellulose, RTTA-transformed primary leukaemic cells. In kind it is cell-based, mouse. The method, then:
(§5) FIG. 2 AML1-ETO and PML-RARα leukemic cells are sensitive to PARPi. A) Representative scheme of experimental procedures. B) Non linear regression dose response curve. Normal bone marrow c-kit cells and pre-leukaemic cells expressing the oncofusion proteins AML1-ETO, E2A-PBX, MLL-AF9 and PML-RARα were grown in methylcellulose for 7 days with escalating doses of PARPi. Data representative of three independent experiments are shown. C) Percentage of survival of preleukemic cells to PARPi. The number of colonies surviving to seven days incubation with PARPi treatment was normalized against the untreated control. Data representative of six independent experiments are shown ±SD. […] D) Colony morphology (phase contrast microscopy, magnification 40×). Representative pictures are shown. E) Efficiency of PARP1 Knock down (KD) in NIH3T3 cells infected with retroviral vectors expressing shRNA against mouse PARP1. qPCR data showing expression of PARP1 mRNA in NIH3T3 after infection with sh-mPARP1. Data representative of two independent experiments are shown ±SD. Paired two-tailed t test was performed between empty vector and i) scramble, ii) sh-PARP1-A and iii) sh-PARP1-D*p<0.05. F) Efficiency of PARP1 by Western Blot. Western Blot data showing protein level of PARP1 in NIH3T3 after infection with sh-mPARP1. G) Efficiency of PARP1 KD in leukemic cells infected with retroviral vectors expressing shRNA against mouse PARP1. qPCR data showing expression of PARP1 mRNA in leukemic cells after infection with sh-mPARP1. Data representative of three independent experiments are shown ±SD. 2-way Anova test was performed between empty vector and i) scramble, ii) sh-PARP1-A and iii) sh-PARP1-D*p<0.05, **p<0.01, ***p<0.001. H) Relative number of colonies arisen from leukemic cells transformed by indicated oncoproteins after shPARP1-mediated KD. Bone marrow cells were co-transduced with retroviral vectors carrying the oncogene of interest and empty vector or sh-scramble or shPARP1. The number of colonies was normalized against the empty vector control. Data representative of three independent experiments are shown ±SD. 2-way Anova test was performed between empty vector and i) scramble, ii) sh-PARP1-A and iii) sh-PARP1-D*p<0.05, **p<0.01, ***p<0.001. I) Colony morphology from phase contrast microscopy (magnification 40×). Representative pictures are shown. […] The number of colonies after PARPi treatment was normalized against the untreated control. Data representative of three independent experiments are shown ±SD. […] K) Colony morphology (phase contrast microscopy, magnification 20×). Representative pictures are shown. […] The number of colonies after PARPi treatment was normalized against the untreated control. Data representative of three independent experiments are shown ±SD. […] M) Colony morphology (phase contrast microscopy, magnification 20×). Representative pictures are shown. […] The number of colonies after PARPi treatment was normalized against the untreated control. Data representative of three independent experiments are shown ±SD. […] O) Colony morphology (phase contrast microscopy, magnification 20×). Representative pictures are shown.
(§6) Briefly, c-kit positive progenitor cells of wild type Ly5.1 mouse bone marrow transduced with a retroviral vector expressing the LATFs of interest were plated into a methylcellulose medium supplemented with appropriate myeloid cytokines. Replating was performed every week to generate primary cell lines for further analysis. […] Veliparib is an inhibitor of PARP1/2 produced by Abbott and widely used in clinical trials.

The subject of data set [5] is PML-RARα transformed cells. The data set is described as above. In kind it is cell-based, mouse. The protocol: as §5, §6
The test system of the next data set is NB4-MR2. Kind of data set: Colony assay in methylcellulose, ATRA resistant APL cell model. The format is cell-based, human. As to conditions: Olaparib 5 μM, methylcellulose 7 days. The protocol:
as §2

In the next data set the test system is NB4-LR2. The description is as above. In kind it is cell-based, human. As to conditions: Olaparib 5 μM, methylcellulose 7 days. The protocol:
as §2

Data set [6] has as its system Kasumi human cells expressing the oncogene AML1-ETO. Briefly: Survival of NSG mice injected intra-femur with Kasumi human cells. The format is in vivo. The method, then: as §3, §4
The subject of data set [7] is breast, prostate and ovarian cancer patients carrying mutations in BRCA1 or BRCA2 genes. As to conditions: phase I and phase II trials; cited from earlier work.
In data set [8] the test system is MLL-AF9 transformed cells. Briefly: Clonogenic assay in methylcellulose, RTTA-transformed primary leukaemic cells. The settings on record: 1 μM, methylcellulose 7 days. The format is cell-based, mouse. The method, then: as §5, §6
In data set [9] the test system is E2A-PBX transformed cells. The description is as above. As to conditions: 1 μM, methylcellulose 7 days. The format is cell-based, mouse. The protocol: as §5, §6
The mark [10] stands for this setting: Olaparib 25 mg/kg daily for two weeks, FACS human CD33.
[11] abbreviates: Olaparib 25 mg/kg intra-peritoneal daily for two weeks.

For the compound `O=C(c1cc(Cc2n[nH]c(=O)c3ccccc23)ccc1F)N1CCN(C(=O)C2CC2)CC1` [Olaparib, 4-[(3-[(4-cyclopropylcarbonyl)piperazin-4-yl]carbonyl)-4-fluorophenyl]methyl(2H)-phthalazin-1-one], the “onset of the leukaemia” value in [1], in data set [2] (setting [11]) and in [6] (setting [11]) was “significantly delayed” throughout. The “efficacy on colony number” value in the data set on NB4 and in the data set on Kasumi was “confirm the efficacy” in each case. Also, in the data set on MLL-AF9 cells, the “effect on mice developing leukaemia” value is “did not have any significant effect”. Further, the half-maximal inhibitory concentration (IC50) – broadly, the concentration that inhibits the measured activity by half – is 1900 nM in the data set on bone marrow c-kit+ cells; 33.4 nM in data set [4] (Mus musculus, 168 h); 15.8 nM in [5] (Mus musculus, 168 h). In addition, the “engraftment in bone marrow, spleen and liver” value in data set [2] (setting [10]) and in data set [6] (setting [10]) was “variable reduction” throughout. Moreover, the median survival in data set [2] (Olaparib 25 mg/kg intra-peritoneal daily for two weeks, control 30 days) is given as 47 days; in data set [6] (Olaparib 25 mg/kg intra-peritoneal daily for two weeks, control 50 days, experiment still ongoing) it was 115 days. Moreover, the “overall survival benefit compared to chemotherapy” value in data set [3] is recorded as “failed to show overall survival benefit”. The “reduction in colony forming ability” value in data set [4] (Olaparib 1 uM, p<0.05) is reported as 70-90%; in data set [5] (Olaparib 1 uM, p<0.05) it was 70-90%. Moreover, the “reduction of number of colonies after additional replating” value in data set [4] (replating in semi-solid medium containing Olaparib, p<0.05) is given as 90%. For the same compound, the “sensitivity (colony number)” value with NB4-MR2 and in the data set with NB4-LR2 was “extremely sensitive” throughout. Moreover, in [7], the anti-tumour effect result is “anti-tumour effect”. For the same compound, in [7], the side effects result was “grade 1 or 2”.

On to `C[C@]1(c2nc3c(C(N)=O)cccc3[nH]2)CCCN1` [Veliparib, 2-((R)-2-methylpyrrolidin-2-yl)-1H-benzimidazole-4-carboxamide], for which the effect on colonies result in data set [4] (1 μM, methylcellulose 7 days) is reported as “reduced colonies”; in data set [5] (1 μM, methylcellulose 7 days), “reduced colonies”; in data set [8] it was “no effect”; in data set [9], “no effect”.
